pIC50, pKd: −log10 of the molar value. Where a SMILES comes first, the peptide text is derived from it. Bridges are numbered along the chain shown (N, C = ends). [ ]: non-standard residue; d: D form. The star is where a group is joined. hPhe(3-Cl-4-CF3) = N[C@@H](CCc1ccc(C(F)(F)F)c(Cl)c1)C(=O)O; NPrPhe(4-CF3) = CCCN[C@@H](Cc1ccc(C(F)(F)F)cc1)C(=O)O; NMeGly(cPent) = CN[C@H](C(=O)O)C1CCCC1; NMeD = CN[C@@H](CC(=O)O)C(=O)O; NMeL = CN[C@@H](CC(C)C)C(=O)O; Pip = O=C(O)[C@@H]1CCCCN1; Morpholide = C1CN(*)CCO1; Ac5c = NC1(C(=O)O)CCCC1; Aze = O=C(O)[C@@H]1CCN1; Sar = CNCC(=O)O
How the values were obtained:
[1] = molecular target: GDP-bound KRAS wild-type protein (Homo sapiens, UniProt P01116); assay: Binding to KRAS by surface plasmon resonance (SPR), dissociation constant KD
Procedure, shortened: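 Each cycle, GDP-bound biotin-Avi RAS was captured (~100–300 RU), compound concentrations were injected low to high for 75 s each at 100 µL/min, then the chip was regenerated. Buffer: HBS pH 7.4, 10 mM MgCl2, 10 µM GDP, 1 mM DTT, 4% DMSO; 30°C. KD from a 1:1 binding model.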

[2] = test system: human lung cancer strain NCI-H441; format: cell-based
Procedure, shortened: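 Readout: […] after the ATP-based reagent. Compound: serial dilutions in dimethyl sulfoxide.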

HRAS wild-type protein = HRAS wild-type protein (Homo sapiens, UniProt P01112); assay: Binding to HRAS by surface plasmon resonance (SPR), KD and KD ratio to KRAS
Procedure, shortened: (§1)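 GDP-loaded biotinylated Avi-tag RAS proteins (E. coli-expressed) captured on a Biotin CAPture chip at ~100–300 RU; single-cycle kinetics at 30°C, 100 µL/min, 75 s injections of rising compound concentrations. HBS pH 7.4 running buffer with 1 mM DTT, 10 mM MgCl2, 10 µM GDP, 4% DMSO. KD from 1:1 binding fit.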

[3] = molecular target: GDP-bound NRAS wild-type protein (Homo sapiens, UniProt P01111); assay: Binding to NRAS by surface plasmon resonance (SPR), KD and KD ratio to KRAS
Procedure, shortened: as §1

[4] = ratio of KD for HRAS wild-type protein to KD for KRAS
[5] = ratio of KD for GDP-bound NRAS wild-type protein to KD for KRAS

HRAS wild-type protein, sequence (P01112 whole entry): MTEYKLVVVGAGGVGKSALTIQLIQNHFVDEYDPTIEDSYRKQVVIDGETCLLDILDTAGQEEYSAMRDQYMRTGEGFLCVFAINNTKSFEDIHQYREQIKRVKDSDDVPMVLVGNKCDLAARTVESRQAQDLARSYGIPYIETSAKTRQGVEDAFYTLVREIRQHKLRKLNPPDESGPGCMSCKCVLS
GDP-bound KRAS wild-type protein, sequence (P01116 1-188 isoform P01116-2): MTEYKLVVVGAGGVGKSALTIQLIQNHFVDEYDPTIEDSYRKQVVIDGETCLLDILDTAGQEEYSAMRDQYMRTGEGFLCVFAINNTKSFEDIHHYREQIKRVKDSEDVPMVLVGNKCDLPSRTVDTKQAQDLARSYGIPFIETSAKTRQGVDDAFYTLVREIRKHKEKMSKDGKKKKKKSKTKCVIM
GDP-bound NRAS wild-type protein, sequence (P01111 whole entry): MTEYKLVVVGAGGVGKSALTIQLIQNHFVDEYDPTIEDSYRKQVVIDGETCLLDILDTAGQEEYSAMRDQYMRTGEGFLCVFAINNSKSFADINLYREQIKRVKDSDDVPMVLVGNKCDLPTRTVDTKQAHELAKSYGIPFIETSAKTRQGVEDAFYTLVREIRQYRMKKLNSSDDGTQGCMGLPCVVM

Compound	pKd ([1]; 1:1 binding model)	pIC50 [2]	pKd ([1]; Single Cycle Kinetics, 1:1 binding model)	pKd ([1]; Single Cycle Kinetics)	HRAS /KRAS (HRAS wild-type protein; [4])	NRAS /KRAS [3, 5]	HRAS /KRAS (HRAS wild-type protein; ratio of KD value for HRAS wild-type protein to KD value for KRAS (SPR))	NRAS /KRAS ([3]; ratio of KD value for GDP-bound NRAS wild-type protein to KD value for KRAS (SPR))
CCO[C@@H]1C[C@H]2C(=O)N(C)C3(CC(C)(C)C3)C(=O)N(C)[C@@H](C3CCCC3)C(=O)N(C)[C@H](C(=O)N(C)C)CC(=O)N(C)[C@H]3CCCCCc4ccc(cc4)C[C@@H](C(=O)N(C)CC(=O)N[C@@H](CCc4ccc(C(F)(F)F)c(OC)c4)C(=O)N2C1)N1CC/C=C\C[C@@H](C1=O)N(C)C(=O)CN(C)C(=O)[C@H]([C@@H](C)CC)NC3=O [PP3091]	10.51	8.92	–	–	B (a compound having 3 or more and less than 10 is denoted as B)	A (a compound having 10 or more and less than 20 is denoted as A)	–	–
CC[C@H](C)[C@@H]1NC(=O)[C@H](CC2CCC2)N(C)C(=O)C[C@@H](C(=O)N(C)C)N(C)C(=O)[C@H](C2CCCC2)N(C)C(=O)C2(CCC2)N(C)C(=O)[C@@H]2C[C@@H](C)CN2C(=O)[C@H](CCc2cc(F)c(C(F)(F)F)c(F)c2)NC(=O)CN(C)C(=O)[C@H](Cc2ccc(C)cc2)N2CC/C=C\C[C@@H](C2=O)N(C)C(=O)CN(C)C1=O [PP1803]	–	8.12	10.00	–	–	–	B (a compound having 3 or more and less than 10 is denoted as B)	A (a compound having 10 or more and less than 20 is denoted as A)
CCCN1C(=O)[C@@H]2CCN2C(=O)[C@@H]2CCCCN2C(=O)[C@H]([C@@H](C)CC)NC(=O)[C@H](CC(C)C)N(C)C(=O)C[C@@H](C(=O)N2CCOCC2)N(C)C(=O)[C@H](C2CCCC2)N(C)C(=O)C2(CCCC2)NC(=O)[C@@H]2CCCN2C(=O)[C@H](CCc2ccc(C(F)(F)F)c(Cl)c2)NC(=O)CN(C)C(=O)[C@@H]1Cc1ccc(C(F)(F)F)cc1 [PP0077] ([NMeL]I[Pip][Aze][NPrPhe(4-CF3)][Sar][hPhe(3-Cl-4-CF3)]P[Ac5c][NMeGly(cPent)][NMeD]-Morpholide; lactam N-11)	9.70	8.28	–	–	B (a compound having 3 or more and less than 10 is denoted as B)	C (A compound having a KD ratio of 0.1 or more and less than 3 is denoted as C)	–	–
CCO[C@@H]1C[C@H]2C(=O)NC3(CCC3)C(=O)N(C)[C@@H](C3CCCC3)C(=O)N(C)[C@H](C(=O)N3CCOCC3)CC(=O)N(C)[C@@H](CC(C)C)C(=O)N[C@@H](C3CC(F)(F)C3)C(=O)N(C)CC(=O)N(C)[C@H]3CCCCCN(C3=O)[C@@H](Cc3ccc(C(F)(F)F)cc3)C(=O)N(C)CC(=O)N[C@@H](CCc3cc(F)c(C(F)(F)F)c(F)c3)C(=O)N2C1 [PP0816]	–	7.03	–	9.30	B (a compound having 3 or more and less than 10 is denoted as B)	A (a compound having 10 or more and less than 20 is denoted as A)	–	–

The next lines start with results.

pKd ([1]; 1:1 binding model)	pIC50 [2]	pKd ([1]; Single Cycle Kinetics, 1:1 binding model)	pKd ([1]; Single Cycle Kinetics)	Compound	HRAS /KRAS (HRAS wild-type protein; [4])	NRAS /KRAS [3, 5]	HRAS /KRAS (HRAS wild-type protein; ratio of KD value for HRAS wild-type protein to KD value for KRAS (SPR))	NRAS /KRAS ([3]; ratio of KD value for GDP-bound NRAS wild-type protein to KD value for KRAS (SPR))
8.85	6.89	–	–	CCO[C@@H]1C[C@H]2C(=O)NC3(CC(C)(C)C3)C(=O)N(C)[C@@H](C3CCCC3)C(=O)N(C)[C@H](C(=O)N(C)C)CC(=O)N(C)[C@@H]([C@H](C)OC)C(=O)N[C@@H]([C@@H](C)CC)C(=O)N3CCC[C@H]3C(=O)N(C)[C@H]3C/C=C\CCN(C3=O)[C@@H](Cc3ccc(C)cc3)C(=O)N(C)CC(=O)N[C@@H](CCc3ccc(C(F)(F)F)c(OC)c3)C(=O)N2C1 [PP3197]	A (a compound having 10 or more and less than 20 is denoted as A)	A (a compound having 10 or more and less than 20 is denoted as A)	–	–
8.26	7.00	–	–	CCC[C@H]1C(=O)N[C@@H]([C@@H](C)CC)C(=O)N(C)CC(=O)N(C)[C@H]2C/C=C\CCN(C2=O)[C@@H](Cc2ccc(C)cc2)C(=O)N(C)CC(=O)N[C@@H](CCc2ccc3c(C)c(C)n(C)c3c2)C(=O)N2C[C@H](OCC)C[C@H]2C(=O)NC2(CC(C)(C)C2)C(=O)N(C)[C@@H](C(CC)CC)C(=O)N(C)[C@H](C(=O)N(C)C)CC(=O)N1C [PP2906]	A (a compound having 10 or more and less than 20 is denoted as A)	A (a compound having 10 or more and less than 20 is denoted as A)	–	–
9.60	8.01	–	–	CCO[C@@H]1C[C@H]2C(=O)NC3(CC(C)(C)C3)C(=O)N(C)[C@@H](C3CCCC3)C(=O)N(C)[C@H](C(=O)N(C)CC)CC(=O)N(C)[C@@H](CC(C)C)C(=O)N[C@@H]([C@@H](C)CC)C(=O)N(C)CC(=O)N(C)[C@H]3C/C=C\CCN(C3=O)[C@@H](Cc3ccc(C(F)F)cc3)C(=O)N(C)CC(=O)N[C@@H](CCc3ccc(C(F)(F)F)c(CC)c3)C(=O)N2C1 [PP3141]	A (a compound having 10 or more and less than 20 is denoted as A)	A (a compound having 10 or more and less than 20 is denoted as A)	–	–
9.48	7.76	–	–	CCC[C@H]1C(=O)N[C@@H]([C@@H](C)CC)C(=O)N(C)CC(=O)N(C)[C@H]2C/C=C\CCN(C2=O)[C@@H](Cc2ccc(C)cc2)C(=O)N(C)CC(=O)N[C@@H](CCc2ccc3sc(C)c(C)c3c2)C(=O)N2C[C@H](OCC)C[C@H]2C(=O)NC2(CC(C)(C)C2)C(=O)N(C)[C@@H](C2CCCC2)C(=O)N(C)[C@H](C(=O)N(C)C)CC(=O)N1C [PP2891]	B (a compound having 3 or more and less than 10 is denoted as B)	A (a compound having 10 or more and less than 20 is denoted as A)	–	–

From patent publication EP4603105A1, “PHARMACEUTICAL COMPOSITION CONTAINING CYCLIC COMPOUND HAVING SELECTIVE KRAS INHIBITORY EFFECT AGAINST HRAS AND NRAS” (CHUGAI SEIYAKU KABUSHIKI KAISHA, priority 2022, dated 2024)
